Laboratory results as given in PubChem BioAssay AID330 (DTP/NCI, 2004).
Several values for one entry are separate records, joined by “and”; a condition that tells them apart may be missing. Equal entries are not always repeated. Inconclusive results and toxic doses are left out.

Tested on: P388 leukemia ip, CD2F1 mice, survival T/C
Test: NCI In Vivo Anticancer Drug Screen. Data for tumor model P388 Leukemia (intraperitoneal) in CD2F1 (CDF1) mice
Details: endpoint: median survival time, higher = longer survival
Outline: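 Mice carrying the transplanted tumor received test compound or vehicle. Survival was recorded in each group, and the value is the treated-group measurement divided by that of the vehicle-treated control group.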

[1] = dose: 12.5 mg/kg/injection, schedule: Q01DX009 (ip), vehicle: Klucel (hydroxypropylcellulose) (HPC)
[2] = dose: 25.0 mg/kg/injection, schedule: Q01DX009 (ip), vehicle: Klucel (hydroxypropylcellulose) (HPC)
[3] = dose: 50.0 mg/kg/injection, schedule: Q01DX009 (ip), vehicle: Klucel (hydroxypropylcellulose) (HPC)
[4] = dose: 100.0 mg/kg/injection, schedule: Q01DX009 (ip), vehicle: Klucel (hydroxypropylcellulose) (HPC)
[5] = dose: 200.0 mg/kg/injection, schedule: Q01DX009 (ip), vehicle: Klucel (hydroxypropylcellulose) (HPC)
[6] = dose: 60.0 mg/kg/injection, schedule: Q01DX005 (ip), vehicle: saline with Tween-80
[7] = dose: 50.0 mg/kg/injection, schedule: Q01DX009 (ip), vehicle: saline with Tween-80
[8] = dose: 100.0 mg/kg/injection, schedule: Q01DX009 (ip), vehicle: saline with Tween-80
[9] = dose: 200.0 mg/kg/injection, schedule: Q01DX009 (ip), vehicle: saline with Tween-80
[10] = dose: 50.0 mg/kg/injection, schedule: Q01DX005 (ip), vehicle: saline with Tween-80
[11] = dose: 100.0 mg/kg/injection, schedule: Q01DX005 (ip), vehicle: saline with Tween-80
[12] = dose: 50.0 mg/kg/injection, schedule: Q01DX005 (ip), vehicle: Klucel (hydroxypropylcellulose) (HPC)
[13] = dose: 100.0 mg/kg/injection, schedule: Q01DX005 (ip), vehicle: Klucel (hydroxypropylcellulose) (HPC)
[14] = dose: 200.0 mg/kg/injection, schedule: Q01DX005 (ip), vehicle: Klucel (hydroxypropylcellulose) (HPC)
[15] = dose: 50.0 mg/kg/injection, schedule: Q01DX009 (ip), vehicle: saline
[16] = dose: 100.0 mg/kg/injection, schedule: Q01DX009 (ip), vehicle: saline

## COc1cc(/C=C/C(NC(C)=O)c2cccc(O)c(=O)c2)cc(OC)c1OC (configuration not stated)
[1]
  T/C: 90 % of control
[2]
  T/C: 93 % of control
[3]
  T/C: 98 % of control
[4]
  T/C: 107 % of control
[5]
  T/C: 116 % of control

## CNC(=O)OCc1c(COC(=O)NC)c(-c2ccsc2)n2c1CCC2
dose: 15.0 mg/kg/injection, schedule: Q01DX005 (ip), vehicle: saline with Tween-80
  T/C: 118 % of control
[6]
  T/C: 119 % of control and 124 % of control

## CN1CC(C(=O)O)=Nc2c1nc(N)[nH]c2=O
dose: 6.25 mg/kg/injection, schedule: Q01DX009 (ip), vehicle: saline with Tween-80
  T/C: 101 % of control
dose: 12.5 mg/kg/injection, schedule: Q01DX009 (ip), vehicle: saline with Tween-80
  T/C: 109 % of control
dose: 25.0 mg/kg/injection, schedule: Q01DX009 (ip), vehicle: saline with Tween-80
  T/C: 101 % of control

## CN(C)Cc1nc2sc3c(c2c(=O)[nH]1)CCCC3
[7]
  T/C: 106 % of control
[8]
  T/C: 108 % of control
[9]
  T/C: 103 % of control

## CCN(CC)Cc1cc2[nH]c3c4ccc(Cl)cc4ncc3c2cc1OC (tested in a mixture with another compound)
dose: 12.5 mg/kg/injection, schedule: Q01DX005 (ip), vehicle: saline with Tween-80
  T/C: 100 % of control and 108 % of control
dose: 25.0 mg/kg/injection, schedule: Q01DX005 (ip), vehicle: saline with Tween-80
  T/C: 109 % of control [middle of 4 runs]
[10]
  T/C: 102 % of control and 103 % of control and 113 % of control
[11]
  T/C: 105 % of control and 109 % of control and 106 % of control

## CCn1cnc2sc3c(c2c1=O)CCCC3
[6]
  T/C: 97 % of control
dose: 120.0 mg/kg/injection, schedule: Q01DX005 (ip), vehicle: saline with Tween-80
  T/C: 98 % of control

## CC(C)(C)C1CCC(P(C)(C)=S)CC1 (configuration not stated)
[1]
  T/C: 99 % of control
[2]
  T/C: 114 % of control
[3]
  T/C: 94 % of control
[5]
  T/C: 97 % of control

## O=C(O)CC(CSCP(=O)(O)O)C(=O)O (configuration not stated)
dose: 50.0 mg/kg/injection, schedule: Q01DX005 (ip), vehicle: suspension in saline
  T/C: 102 % of control
dose: 100.0 mg/kg/injection, schedule: Q01DX005 (ip), vehicle: suspension in saline
  T/C: 91 % of control
dose: 200.0 mg/kg/injection, schedule: Q01DX005 (ip), vehicle: suspension in saline
  T/C: 89 % of control

## Cc1cc(C(F)(F)F)nc2nc3ccccc3n12
dose: 60.0 mg/kg/injection, schedule: Q01DX005 (ip), vehicle: Klucel (hydroxypropylcellulose) (HPC)
  T/C: 101 % of control
dose: 120.0 mg/kg/injection, schedule: Q01DX005 (ip), vehicle: Klucel (hydroxypropylcellulose) (HPC)
  T/C: 102 % of control
dose: 240.0 mg/kg/injection, schedule: Q01DX005 (ip), vehicle: Klucel (hydroxypropylcellulose) (HPC)
  T/C: 89 % of control

## FC(F)(Br)C(F)(Cl)Br (configuration not stated)
[10]
  T/C: 101 % of control
[11]
  T/C: 99 % of control
dose: 200.0 mg/kg/injection, schedule: Q01DX005 (ip), vehicle: saline with Tween-80
  T/C: 114 % of control

## CC(=O)OCc1cocc1COC(C)=O
[12]
  T/C: 100 % of control and 103 % of control
[13]
  T/C: 107 % of control and 98 % of control
[14]
  T/C: 117 % of control and 94 % of control

## CC(C)=CCN1CCC2(C)c3cc(O)ccc3CCC2C1 (configuration not stated)
[12]
  T/C: 94 % of control
[13]
  T/C: 104 % of control
[14]
  T/C: 94 % of control

## O=C1c2ccccc2C(=O)c2c(NC(=O)c3ccc4c5c(ncnc35)-c3ccccc3C4=O)cccc21
[3]
  T/C: 95 % of control
[4]
  T/C: 100 % of control
[5]
  T/C: 94 % of control

## O=C(Nc1nncs1)c1ccncc1
dose: 50.0 mg/kg/injection, schedule: Q04DX002 (ip), vehicle: saline with Tween-80
  T/C: 104 % of control
dose: 100.0 mg/kg/injection, schedule: Q04DX002 (ip), vehicle: saline with Tween-80
  T/C: 112 % of control
dose: 200.0 mg/kg/injection, schedule: Q04DX002 (ip), vehicle: saline with Tween-80
  T/C: 157 % of control
dose: 400.0 mg/kg/injection, schedule: Q04DX002 (ip), vehicle: saline with Tween-80
  T/C: 153 % of control and 164 % of control

## Cc1ccn2cc(CC(=O)O)nc2c1
dose: 100.0 mg/kg/injection, schedule: Q01DX001 (ip), vehicle: Klucel (hydroxypropylcellulose) (HPC)
  T/C: 104 % of control
dose: 200.0 mg/kg/injection, schedule: Q01DX001 (ip), vehicle: Klucel (hydroxypropylcellulose) (HPC)
  T/C: 100 % of control
dose: 400.0 mg/kg/injection, schedule: Q01DX001 (ip), vehicle: Klucel (hydroxypropylcellulose) (HPC)
  T/C: 96 % of control

## Cn1c(C(O)CCl)nc2c3ccccc3ccc21 (configuration not stated)
dose: 25.0 mg/kg/injection, schedule: Q01DX009 (ip), vehicle: saline
  T/C: 109 % of control
[15]
  T/C: 106 % of control
[16]
  T/C: 109 % of control and 92 % of control

## COC(=O)C1(F)C(=O)NC(=O)NC1OC (configuration not stated)
dose: 30.0 mg/kg/injection, schedule: Q04DX002 (ip), vehicle: Klucel (hydroxypropylcellulose) (HPC)
  T/C: 117 % of control
dose: 60.0 mg/kg/injection, schedule: Q04DX002 (ip), vehicle: Klucel (hydroxypropylcellulose) (HPC)
  T/C: 118 % of control and 123 % of control
dose: 240.0 mg/kg/injection, schedule: Q04DX002 (ip), vehicle: Klucel (hydroxypropylcellulose) (HPC)
  T/C: 157 % of control
dose: 480.0 mg/kg/injection, schedule: Q04DX002 (ip), vehicle: Klucel (hydroxypropylcellulose) (HPC)
  T/C: 164 % of control

## C/C=C(\C)C(=O)OC1C2C(C)=CC(=O)C(O)C2(C)C2C3(O)OCC24C1OC(=O)C(OC(C)=O)C4C(C)C3O (configuration not stated)
dose: 2.5 mg/kg/injection, schedule: Q01DX009 (ip), vehicle: saline
  T/C: 155 % of control
dose: 5.0 mg/kg/injection, schedule: Q01DX009 (ip), vehicle: saline
  T/C: 163 % of control

## NC(=O)C1ONC(=O)C1N (configuration not stated)
dose: 25.0 mg/kg/injection, schedule: Q01DX009 (ip), vehicle: water
  T/C: 106 % of control
dose: 50.0 mg/kg/injection, schedule: Q01DX009 (ip), vehicle: water
  T/C: 103 % of control
dose: 100.0 mg/kg/injection, schedule: Q01DX001 (ip), vehicle: water
  T/C: 98 % of control
dose: 100.0 mg/kg/injection, schedule: Q01DX009 (ip), vehicle: water
  T/C: 104 % of control
dose: 100.0 mg/kg/injection, schedule: Q04DX003 (ip), vehicle: water
  T/C: 100 % of control
dose: 200.0 mg/kg/injection, schedule: Q01DX001 (ip), vehicle: water
  T/C: 100 % of control
dose: 200.0 mg/kg/injection, schedule: Q01DX009 (ip), vehicle: water
  T/C: 120 % of control
dose: 200.0 mg/kg/injection, schedule: Q04DX003 (ip), vehicle: water
  T/C: 101 % of control
dose: 400.0 mg/kg/injection, schedule: Q01DX001 (ip), vehicle: water
  T/C: 92 % of control
dose: 400.0 mg/kg/injection, schedule: Q04DX003 (ip), vehicle: water
  T/C: 101 % of control
dose: 600.0 mg/kg/injection, schedule: Q01DX001 (ip), vehicle: water
  T/C: 96 % of control

## CN1CCCC1c1ccc[n+](C)c1 (configuration not stated)
[15]
  T/C: 110 % of control and 108 % of control
[16]
  T/C: 110 % of control and 105 % of control
dose: 200.0 mg/kg/injection, schedule: Q01DX009 (ip), vehicle: saline
  T/C: 115 % of control and 113 % of control

## COc1ccc(C(=O)O[C@H]2CC[C@@]3(C)[C@@H]4CC[C@H]5[C@]6(O)C[C@H](O)[C@@]7(O)[C@@H](CN8C[C@@H](C)CC[C@H]8[C@@]7(C)O)[C@]6(O)C[C@@]53OC24O)cc1OC
dose: 3.12 mg/kg/injection, schedule: Q01DX005 (ip), vehicle: saline
  T/C: 95 % of control
dose: 6.25 mg/kg/injection, schedule: Q01DX005 (ip), vehicle: saline
  T/C: 95 % of control
dose: 12.5 mg/kg/injection, schedule: Q01DX005 (ip), vehicle: saline
  T/C: 97 % of control

## C=CCc1ccc(OC(=O)Nc2ccc(C)cc2[N+](=O)[O-])c(OC)c1
[7]
  T/C: 88 % of control
[8]
  T/C: 88 % of control
[9]
  T/C: 95 % of control

## C1CC2CC1C13OC1CC1OC213 (configuration not stated)
dose: 100.0 mg/kg/injection, schedule: Q04DX002 (ip), vehicle: Klucel (hydroxypropylcellulose) (HPC)
  T/C: 104 % of control
dose: 200.0 mg/kg/injection, schedule: Q04DX002 (ip), vehicle: Klucel (hydroxypropylcellulose) (HPC)
  T/C: 105 % of control
dose: 400.0 mg/kg/injection, schedule: Q04DX002 (ip), vehicle: Klucel (hydroxypropylcellulose) (HPC)
  T/C: 111 % of control

## S=C=NP1(N=C=S)=NP(N=C=S)(N=C=S)=NP(N=C=S)(N=C=S)=N1 (configuration not stated)
[12]
  T/C: 107 % of control
[13]
  T/C: 97 % of control
